Assay results: publication PMC10746543, “Design principles for cyclin K molecular glue degraders” (Nature Chemical Biology, 2023)
Where “and” joins values, the source holds several entries; their conditions need not be identical. Equal values may be shown once. Read-outs that look alike come from different tables or passages of the source.

Columns and labels:
[1] = tested on: cyclin K–eGFP degradation reporter; test: Cyclin K reporter stability analysis (dual-color cyclin K–eGFP reporter); type: cell-based, human; conditions: Supplementary Table 2; HEK293T cycK-eGFP reporter, 5 h; read-out: Cellular assays DC50
Method: HEK293T–Cas9 cells expressing the cyclin K–eGFP degradation reporter were resuspended at 1 × 10^6 ml^−1 and 50 µl of cell suspension was seeded in non-cell-culture-treated 384-well plates. Shortly after, cells were treated with drug or DMSO for 5 h. […] The fluorescent signal was quantified by flow cytometry (LSRFortessa flow cytometer, BD Biosciences). Using FlowJo (flow cytometry analysis software, BD Biosciences), the geometric mean of the eGFP and mCherry fluorescent signal for round and mCherry-positive cells was calculated. The ratio of eGFP to mCherry was normalized to the average of three DMSO-treated controls.

[2] = target: T1, CDK12–cyclin K and DDB1 (Homo sapiens, UniProt Q16531+Q9NYV4, K965R); test: TR-FRET ternary complex formation assay (compound titration); type: binding; conditions: for TR-FRET signal at compound concentration: replicate titrations
T1 construct: His6–CDK12 (a.a. 713–1,052); full-length or beta-propeller B domain deletion (ΔBPB: a.a. 396–705 deleted) constructs of His6–DDB1ΔBPB, StrepII–Avi–DDB1, or His6–Spy–DDB1; made in house; host or cells: Trichoplusia ni High Five insect cells (baculovirus)
Summary of the method: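 Background fluorescence is reduced by reading 70 μs after excitation, and complex formation is followed as the 520:490 nm fluorescence ratio.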

[3] = tested on: HEK293T cells; test: Drug sensitivity assay (CellTiter-Glo viability) with or without MLN4924 pretreatment; type: cell-based, human; conditions: Supplementary Table 2; for EC50: Homo sapiens, HEK-293T, HEK293T viability, 72 h, compound alone, read-out: Cellular assays EC50; for Toxicity rescue: MLN4924-mediated cytotoxicity rescue, 10 µM used where n.d.
Summary of the method: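 First, cells (HEK293T–Cas9, 0.15 × 10^6 ml^−1) are exposed to DMSO or 100 nM MLN4924. Next, drugs follow at 2 h. Finally, CellTiter-Glo is read at day 3 and normalised to DMSO.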

[4] = compound concentration 79.2001 nM
[5] = compound concentration 158.4 nM
[6] = compound concentration 309.6 nM
[7] = compound concentration 626.401 nM
[8] = compound concentration 1252.8 nM
[9] = compound concentration 9936.01 nM
[10] = compound concentration 20016 nM
[11] = in vitro complex formation, 50 nM CDK12–cyclin K, 100 nM DDB1, text and figures, read-out: TR-FRET EC50

T1 sequence (Q9NYV4 713-1052 K965R): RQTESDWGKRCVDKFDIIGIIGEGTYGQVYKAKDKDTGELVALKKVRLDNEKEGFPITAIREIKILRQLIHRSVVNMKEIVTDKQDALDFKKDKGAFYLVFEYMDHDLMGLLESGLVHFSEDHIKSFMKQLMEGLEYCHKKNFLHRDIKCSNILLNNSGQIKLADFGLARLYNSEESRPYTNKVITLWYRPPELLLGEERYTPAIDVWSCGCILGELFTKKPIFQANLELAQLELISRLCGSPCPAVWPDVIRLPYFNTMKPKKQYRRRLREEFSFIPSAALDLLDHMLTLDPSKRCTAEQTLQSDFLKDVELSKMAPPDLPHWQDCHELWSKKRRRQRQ
T1 sequence (O75909 1-267 partner): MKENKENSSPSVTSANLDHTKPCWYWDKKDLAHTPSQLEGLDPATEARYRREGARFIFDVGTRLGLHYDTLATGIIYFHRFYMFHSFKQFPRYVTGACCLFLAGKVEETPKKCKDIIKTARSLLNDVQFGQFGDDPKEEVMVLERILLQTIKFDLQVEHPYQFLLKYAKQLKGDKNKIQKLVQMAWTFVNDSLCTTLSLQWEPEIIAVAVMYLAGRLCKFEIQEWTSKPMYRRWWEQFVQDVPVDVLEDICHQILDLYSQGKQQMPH
T1 sequence (Q16531 whole entry): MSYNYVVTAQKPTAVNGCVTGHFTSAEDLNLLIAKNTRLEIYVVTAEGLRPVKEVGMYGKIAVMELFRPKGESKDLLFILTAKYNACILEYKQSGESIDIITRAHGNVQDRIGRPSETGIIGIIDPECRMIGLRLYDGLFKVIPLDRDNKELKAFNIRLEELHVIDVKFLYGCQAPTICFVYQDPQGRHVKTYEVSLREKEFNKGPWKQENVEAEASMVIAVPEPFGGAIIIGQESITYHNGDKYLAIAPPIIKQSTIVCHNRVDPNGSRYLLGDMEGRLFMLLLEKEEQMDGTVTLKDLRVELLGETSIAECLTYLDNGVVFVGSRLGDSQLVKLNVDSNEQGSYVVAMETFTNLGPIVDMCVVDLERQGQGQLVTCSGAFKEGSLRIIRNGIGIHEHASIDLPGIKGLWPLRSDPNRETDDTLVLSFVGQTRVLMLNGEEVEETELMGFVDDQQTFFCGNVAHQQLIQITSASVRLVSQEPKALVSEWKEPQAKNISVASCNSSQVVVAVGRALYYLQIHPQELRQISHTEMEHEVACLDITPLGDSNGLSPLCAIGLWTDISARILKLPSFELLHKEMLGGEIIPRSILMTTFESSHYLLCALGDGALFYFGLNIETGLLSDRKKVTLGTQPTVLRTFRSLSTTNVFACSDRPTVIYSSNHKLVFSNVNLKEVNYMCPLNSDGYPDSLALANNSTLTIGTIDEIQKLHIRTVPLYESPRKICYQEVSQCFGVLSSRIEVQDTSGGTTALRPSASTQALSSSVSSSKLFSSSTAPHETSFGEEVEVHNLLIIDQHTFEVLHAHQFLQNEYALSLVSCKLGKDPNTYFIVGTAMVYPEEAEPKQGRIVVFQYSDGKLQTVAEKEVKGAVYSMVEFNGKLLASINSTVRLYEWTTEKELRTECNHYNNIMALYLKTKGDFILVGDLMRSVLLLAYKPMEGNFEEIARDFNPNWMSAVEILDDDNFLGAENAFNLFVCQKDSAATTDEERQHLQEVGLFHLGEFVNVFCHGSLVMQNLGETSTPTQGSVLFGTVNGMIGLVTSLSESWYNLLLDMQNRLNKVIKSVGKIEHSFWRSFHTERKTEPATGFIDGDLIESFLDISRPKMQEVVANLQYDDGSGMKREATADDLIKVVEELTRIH

SMILES: CC[C@H](CO)Nc1nc(NCC2CCCCC2)c2ncn(C(C)C)c2n1 [DS12]
- DC50 [1]: > 10 µM
- EC50 ([2]; Supplementary Table 2, read-out: TR-FRET EC50 TR-FRET): 0.774 µM
- TR-FRET signal, individual replicate ([2]; compound concentration 4.68 nM): 0.1383 and 0.1554
- TR-FRET signal, individual replicate ([2]; compound concentration 21.6 nM): 0.1534 and 0.1726
- TR-FRET signal, individual replicate ([2]; compound concentration 36 nM): 0.171 and 0.1959
- TR-FRET signal, individual replicate [2, 4]: 0.2152 and 0.2381
- TR-FRET signal, individual replicate [2, 5]: 0.2801 and 0.3063
- TR-FRET signal, individual replicate [2, 6]: 0.3618 and 0.4127
- TR-FRET signal, individual replicate [2, 7]: 0.3596 and 0.5492
- TR-FRET signal, individual replicate [2, 8]: 0.6021 and 0.6861
- TR-FRET signal, individual replicate ([2]; compound concentration 2448 nM): 0.7207 and 0.8094
- TR-FRET signal, individual replicate [2, 9]: 0.7638 and 0.9453
- TR-FRET signal, individual replicate [2, 10]: 0.8451 and 0.9714
- EC50 [3]: > 10 µM
- Toxicity rescue [3]: 0%

SMILES: CCOCCOCCNc1nc(N[C@H](CC)CO)nc2c1ncn2C(C)C [DS13]
- DC50 [1]: > 10 µM
- TR-FRET signal ([2]; compound concentration 4.68 nM): 0.1269 and 0.1552
- TR-FRET signal ([2]; compound concentration 21.6 nM): 0.1368 and 0.156
- TR-FRET signal ([2]; compound concentration 36 nM): 0.1404 and 0.1564
- TR-FRET signal [2, 4]: 0.1332 and 0.164
- TR-FRET signal [2, 5]: 0.1494 and 0.1683
- TR-FRET signal [2, 6]: 0.1517 and 0.1802
- TR-FRET signal [2, 7]: 0.1772 and 0.1976
- TR-FRET signal [2, 8]: 0.2017 and 0.2255
- TR-FRET signal ([2]; compound concentration 2448 nM): 0.2403 and 0.2789
- TR-FRET signal [2, 9]: 0.333 and 0.3875
- TR-FRET signal [2, 10]: 0.3528 and 0.412
- EC50 [2, 11]: 3.23 ± 0.959 µM
- EC50 [3]: > 10 µM
- Toxicity rescue [3]: 0%

SMILES: CC[C@H](CO)Nc1nc(NCc2ccc3cc(O)ccc3c2)c2ncn(C(C)C)c2n1 [DS14]
- DC50 [1]: > 10 µM
- TR-FRET signal ([2]; compound concentration 4.68 nM): 0.1364 and 0.1548
- TR-FRET signal ([2]; compound concentration 21.6 nM): 0.1403 and 0.1585
- TR-FRET signal ([2]; compound concentration 36 nM): 0.1464 and 0.1703
- TR-FRET signal [2, 4]: 0.164 and 0.1861
- TR-FRET signal [2, 5]: 0.1899 and 0.214
- TR-FRET signal [2, 6]: 0.2284 and 0.2573
- TR-FRET signal [2, 7]: 0.2863 and 0.3257
- TR-FRET signal [2, 8]: 0.3495 and 0.4048
- TR-FRET signal ([2]; compound concentration 2448 nM): 0.4136 and 0.4783
- TR-FRET signal [2, 9]: 0.5447 and 0.6287
- TR-FRET signal [2, 10]: 0.6134 and 0.6953
- EC50 [2, 11]: 2.36 ± 0.777 µM
- EC50 [3]: > 10 µM
- Toxicity rescue [3]: 0%

SMILES: CC[C@H](CO)Nc1nc(NCCCCCc2cccc3ccccc23)c2ncn(C(C)C)c2n1 [DS15]
- DC50 [1]: > 10 µM
- TR-FRET signal, individual replicate ([2]; compound concentration 4.68 nM): 0.1682 and 0.1874
- TR-FRET signal at compound concentration ([2]; compound concentration 4.68 nM): 0.1682 and 0.1874
- TR-FRET signal, individual replicate ([2]; compound concentration 21.6 nM): 0.2977 and 0.3197
- TR-FRET signal at compound concentration ([2]; compound concentration 21.6 nM): 0.2977 and 0.3197
- TR-FRET signal, individual replicate ([2]; compound concentration 36 nM): 0.5215 and 0.541
- TR-FRET signal at compound concentration ([2]; compound concentration 36 nM): 0.5215 and 0.541
- TR-FRET signal, individual replicate [2, 4]: 0.8673 and 0.9745
- TR-FRET signal at compound concentration [2, 4]: 0.8673 and 0.9745
- TR-FRET signal, individual replicate [2, 5]: 1.23 and 1.324
- TR-FRET signal at compound concentration [2, 5]: 1.23 and 1.324
- TR-FRET signal, individual replicate [2, 6]: 1.677 and 1.781
- TR-FRET signal at compound concentration [2, 6]: 1.677 and 1.781
- TR-FRET signal, individual replicate [2, 7]: 2.096 and 2.217
- TR-FRET signal at compound concentration [2, 7]: 2.096 and 2.217
- TR-FRET signal, individual replicate [2, 8]: 2.231 and 2.525
- TR-FRET signal at compound concentration [2, 8]: 2.231 and 2.525
- TR-FRET signal, individual replicate ([2]; compound concentration 2448 nM): 2.525 and 2.68
- TR-FRET signal at compound concentration ([2]; compound concentration 2448 nM): 2.525 and 2.68
- TR-FRET signal, individual replicate [2, 9]: 2.633 and 2.833
- TR-FRET signal at compound concentration [2, 9]: 2.633 and 2.833
- TR-FRET signal, individual replicate [2, 10]: 2.343 and 2.482
- TR-FRET signal at compound concentration [2, 10]: 2.343 and 2.482
- EC50 [2, 11]: 0.182 µM
- EC50 ([2]; sheet MOESM7, read-out: log TR-FRET EC50 (converted)): 0.182 µM
- EC50 [3]: > 10 µM
- Toxicity rescue [3]: 0%
